Laboratory results reported in patent US20180153837A1, “METHODS OF IMPROVING PHYSIOLOGICAL RESPONSES RELATED TO POST-TRAUMATIC STRESS DISORDER THROUGH DIETARY SUPPLEMENTATION” (Natural Alternatives International, Inc., priority 2015, published 2018).
Read-outs that look alike come from different tables or passages of the source.

Key:
[1] = tested on: animal model of post-traumatic stress disorder (PTSD)
Procedure: (§1) Adult male Sprague-Dawley rats weighing 200-250 gm (n=122) were habituated to housing conditions for at least seven days. All animals were housed four per cage in a vivarium with stable temperature and a reversed 12-h light/dark cycle, with unlimited access to food and water. β-alanine was provided with glucomannan in a powder form in an 80:20 blend. Rats were provided with 100 mg of the powder per kg of body mass (a total of 30 mg of powder was dissolved in 25 ml of water). PL treated rats were provided with the vehicle (glucommanan) at the same relative dose. Animals were handled once daily. All testing was performed during the dark phase in dim red light conditions. This study was performed according to the principles and guidelines of the National Institute of Health Guide for the Care and Use of Laboratory Animals. All treatment and testing procedures were approved by the Animal Care Committee of the Ben-Gurion University of the Negev, Israel.
(§2) Following the 7-day acclimation period in which all rats received a normal powder diet, they were randomized into the four groups. Following 30-days of either normal diet or β-alanine supplemented diet the rats were exposed to either the PSS or sham protocol. All behavioral tests were conducted 7 days following the PSS or sham protocol, and the rats were then sacrificed 24 hours later and brains were removed. Diets were maintained until the end of the study.
(§3) Following the 30-day supplementation regimen, animals were exposed to the PSS protocol. The PSS protocol consisted of placing the experimental animal on well-soiled cat litter (in use by the cat for 2 days, sifted for stools) for 10 minutes in a closed environment. Control animals were exposed to fresh, unused litter for the same amount of time. The situational reminder consisted of placing animals on fresh, unused cat litter for 15 minutes.

brain carnosine [2] = details: for Brain Carnosine Concentrations, Amygdala / Brain Carnosine Concentrations, Cortex / Brain Carnosine Concentrations, Hippocampus / Brain Carnosine Concentrations, Hypothalamus / Brain Carnosine Concentrations, Olfactory bulb / Brain Carnosine Concentrations, Thalamus: 30 days BA, mean ± SD
Procedure: as §1
Rats were randomly assigned to one of four treatment groups (n=30 or 31 per group):
as §2, §3
Carnosine concentrations in brain homogenates were determined by LC-MS-MS analysis.
Brains were partially thawed on ice and six brain regions were sampled: cerebral cortex, hypothalamus, hippocampus, amygdala, olfactory bulb, and thalamus. Each sample was weighed and transferred into individual vials for further homogenization.
Brain samples were homogenized in saline (0.9% NaCl; 100 mg/l ml) supplemented with 1 mM EDTA, using Polytron Homogenizer. Homogenates were stored at −20°±5° C. prior to LC/MS/MS analysis. L-Carnosine purchased from Sigma was used to prepare standards for the calibration curve (in ppb). Samples were diluted ×5 prior to analysis. The concentration read from the standard curve was multiplied by the dilution factor and converted to ppm units.

mice = details: β-alanine supplemented diet; cited from earlier work
brain carnosine [3] = details: mice, β-alanine supplemented diet; cited from earlier work
[4] = β-alanine taken as a free amino acid; cited from earlier work
BDNF [5] = tested on: BDNF
Procedure: as §1, §2

BDNF [6] = details: mice, β-alanine supplemented diet; cited from earlier work
corticosterone = tested on: corticosterone
Procedure: as §1
Following the 7-day acclimation period in which all rats received a normal powder diet, they were randomized into the four groups. Following 30-days of either normal diet or β-alanine supplemented diet the rats were exposed to either the PSS or sham protocol. […]
Plates were read at 450 nm. […] All samples were measured in duplicate.

[7] = PSS+PL compared with PSS+BA (and UNEX groups), 7 days after PSS
[8] = PSS+BA: rats exposed to PSS, Day 8 post-PSS
[9] = UNEX+BA: rats not exposed to PSS

## NCCC(=O)O [BA, β-alanine]
[1]; PSS+BA compared with PSS+PL, p=0.085
  startle amplitude: tended to have a lower startle amplitude
[1]; PSS+BA compared with UNEX+BA
  EPM scores: comparable scores to UNEX+BA
[1]; PSS+BA compared with unexposed animals (normal diet p<0.001; BA p=0.0001)
  startle amplitude: significantly greater
[1]; PSS+BA compared with unexposed animals (normal diet p=0.01; BA p=0.003)
  immobility upon cue: significantly greater immobility upon cue
[1]; PSS+BA less than PSS+PL, p=0.148
  freezing, difference: approximately 6%
[1]; PSS+BA versus PSS+PL, p=0.148
  freezing, significance of difference: not statistically different
[1]; PSS+BA, Day 8
  freezing upon cue-exposure (percentage of total time): 34.8%
[1]; [7]
  number of open arm entries in the EPM: significantly less
  time in the open arms of the EPM: significantly less time in the open arms
[1]; PSS+PL compared with PSS+BA, p<0.05
  Anxiety index: higher
[1]; animals exposed to PSS regardless of diet versus unexposed groups, p<0.001
  startle habituation score: significantly lower habituation score
[1]; exposed + β-alanine versus exposed not supplemented, p=0.085
  lower startle response: 19%
[1]; exposed + β-alanine versus exposed not supplemented, p=0.148
  lower freezing response: 15%
Brain carnosine [2]; [8]
  Brain Carnosine Concentrations, Amygdala: 3.52 ± 3.84 a, c mg · L^−1
  Brain Carnosine Concentrations, Cortex: 6.55 ± 4.90 a, c mg · L^−1
  Brain Carnosine Concentrations, Hippocampus: 5.58 ± 4.39 a, c mg · L^−1
  Brain Carnosine Concentrations, Hypothalamus: 4.54 ± 4.04 a, c mg · L^−1
  Brain Carnosine Concentrations, Olfactory bulb: 13,109 ± 9,773 mg · L^−1
  Brain Carnosine Concentrations, Thalamus: 5.97 ± 4.48 a, c mg · L^−1
Brain carnosine [2]; [9]
  Brain Carnosine Concentrations, Amygdala: 2.34 ± 3.04 mg/L
  Brain Carnosine Concentrations, Cortex: 3.78 ± 4.47 a mg · L^−1
  Brain Carnosine Concentrations, Hippocampus: 3.75 ± 3.98 a mg · L^−1
  Brain Carnosine Concentrations, Hypothalamus: 2.60 ± 2.85 mg/L
  Brain Carnosine Concentrations, Olfactory bulb: 8,309 ± 6,887 mg · L^−1
  Brain Carnosine Concentrations, Thalamus: 3.99 ± 5.10 a mg · L^−1
Brain carnosine [2]; animals supplemented with BA compared to PL
  Brain carnosine concentrations in the hippocampus and other brain sections: significantly greater
Brain carnosine [2]; supplemented versus normal diet
  influence on carnosine concentrations in the olfactory bulb: did not appear to have any influence
mice
  activity in the open arms of an elevated plus-maze test: significantly greater activity
Brain carnosine [3]
  brain carnosine concentrations in the cerebral cortex and hypothalamus: increase brain carnosine concentrations
[4]
  duration of flushing/tingling of the skin: less than 60 minutes
BDNF [5]; PSS+BA compared with PSS+PL, p<0.001
  BDNF expression, CA1 subregion: significantly greater than exposed rats fed a normal diet
BDNF [5]; PSS+BA compared with PSS+PL, p=0.011
  BDNF expression, DG subregion: greater
BDNF [5]; PSS+BA compared with unexposed animals
  BDNF expression, CA1 subregion: significantly lower than unexposed animals
BDNF [5]; PSS+BA compared with unexposed animals (p=0.765, p=0.818)
  BDNF expression, DG subregion: not statistically different
BDNF [5]; UNEX+BA versus UNEX+PL
  BDNF expression in unexposed rats: did not appear to increase BDNF expression
BDNF [6]
  concentration of BDNF in the hippocampus: increase the concentration of BDNF
corticosterone; PSS+BA compared with unexposed animals, p<0.001
  corticosterone concentrations: significantly higher corticosterone concentrations
corticosterone; exposed rats normal diet versus exposed rats BA, p=0.837
  corticosterone concentrations: No significant differences
